Source: patent US12303509B2, “Compounds for the treatment of BRAF-associated diseases and disorders” (Pfizer Inc., priority 2020, dated 2025)

Legend:
[1] = target: full-length FLAG-tagged B-Raf(V600E) (Homo sapiens (Human), UniProt P15056, V600E); assay: BRAF V600E enzyme assay (TR-FRET competitive displacement); type: binding; conditions: averaged IC50; TR-FRET tracer displacement, 60 min
How it was run: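 Displacement of 50 nM Tracer 1710 from 5 nM full-length N-terminally FLAG-tagged B-Raf(V600E), detected by TR-FRET with 0.5 nM Eu anti-FLAG antibody, in 25 mM HEPES pH 7.4, 10 mM MgCl2, 2% DMSO; 60 min at ~22 °C. Compounds 11-point, 3-fold from 10 μM; IC50 from 4-parameter fit at 50 POC.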

[2] = test system: A375 cells; assay: Cellular phospho-ERK inhibition assay in A375 cells; type: cell-based; conditions: Homo sapiens, A-375, A375 cells (head prints A357), 2 hours treatment, read-out: A357 cell IC50
How it was run: (§1)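 A375 (DMEM) or H1755 (RPMI) cells in 10% FBS treated 2 h at 37 °C with 9-point series, 66 pM–10 μM, 0.25% DMSO. Phospho-ERK1/2 (Thr202/Tyr204) measured by In Cell Western, normalised to GAPDH and to DMSO and 10 μM binimetinib controls; IC50 by 4-parameter fit.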

[3] = test system: H1755 cells; assay: Cellular phospho-ERK inhibition assay in H1755 cells; type: cell-based; conditions: Homo sapiens, NCI-H1755, 2 hours treatment, read-out: H1755 Cell IC50
How it was run: as §1

[4] = target: BCRP (Homo sapiens (Human), UniProt Q9UNQ0); assay: BCRP MDCKII permeability assay: efflux ratio; type: in vitro ADME; conditions: dog
Chain of BCRP (Q9UNQ0 whole entry): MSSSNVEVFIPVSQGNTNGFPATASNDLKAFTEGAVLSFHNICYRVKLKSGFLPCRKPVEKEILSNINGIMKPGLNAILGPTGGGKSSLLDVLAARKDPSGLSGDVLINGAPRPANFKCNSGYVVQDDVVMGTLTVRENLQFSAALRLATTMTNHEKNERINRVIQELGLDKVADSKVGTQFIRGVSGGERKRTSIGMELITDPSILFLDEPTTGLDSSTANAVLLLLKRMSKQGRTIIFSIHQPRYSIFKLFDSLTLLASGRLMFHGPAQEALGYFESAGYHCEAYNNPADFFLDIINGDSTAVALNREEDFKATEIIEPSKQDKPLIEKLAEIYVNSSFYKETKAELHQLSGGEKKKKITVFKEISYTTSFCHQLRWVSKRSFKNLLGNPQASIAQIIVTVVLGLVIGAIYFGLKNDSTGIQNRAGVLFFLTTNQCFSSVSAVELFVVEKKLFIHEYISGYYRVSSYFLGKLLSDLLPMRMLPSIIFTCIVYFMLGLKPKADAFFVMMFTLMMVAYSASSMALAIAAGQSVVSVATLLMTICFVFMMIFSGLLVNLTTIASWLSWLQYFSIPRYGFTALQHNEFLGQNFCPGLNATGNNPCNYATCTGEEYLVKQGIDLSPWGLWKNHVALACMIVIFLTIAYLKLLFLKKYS

Chain of full-length FLAG-tagged B-Raf(V600E) (P15056 whole entry V600E): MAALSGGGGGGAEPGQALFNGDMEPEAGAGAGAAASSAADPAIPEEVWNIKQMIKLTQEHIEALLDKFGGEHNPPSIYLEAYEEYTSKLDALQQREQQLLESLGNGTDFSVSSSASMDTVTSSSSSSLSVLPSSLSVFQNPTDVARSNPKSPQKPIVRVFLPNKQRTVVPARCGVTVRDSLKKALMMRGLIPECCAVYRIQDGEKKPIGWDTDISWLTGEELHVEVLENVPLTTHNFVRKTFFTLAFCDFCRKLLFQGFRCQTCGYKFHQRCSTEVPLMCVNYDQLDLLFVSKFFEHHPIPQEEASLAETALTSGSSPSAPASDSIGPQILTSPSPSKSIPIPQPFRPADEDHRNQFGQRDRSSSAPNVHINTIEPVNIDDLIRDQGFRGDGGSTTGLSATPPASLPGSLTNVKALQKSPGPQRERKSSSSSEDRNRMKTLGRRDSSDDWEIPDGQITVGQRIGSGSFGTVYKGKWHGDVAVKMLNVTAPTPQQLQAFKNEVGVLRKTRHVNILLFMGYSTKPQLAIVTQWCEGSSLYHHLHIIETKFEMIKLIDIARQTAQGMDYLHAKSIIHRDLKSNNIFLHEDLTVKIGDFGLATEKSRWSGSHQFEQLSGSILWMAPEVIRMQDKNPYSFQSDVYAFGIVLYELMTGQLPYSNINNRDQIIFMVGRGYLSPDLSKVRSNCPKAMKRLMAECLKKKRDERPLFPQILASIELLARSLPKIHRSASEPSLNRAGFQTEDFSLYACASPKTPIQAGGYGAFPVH

Row | Structure (SMILES) | IC50 [1] [nM] | IC50 [2] [nM] | IC50 [3] [nM] | efflux ratio at 2 h, 1 µM [4]
1 | Cn1cnc2ccc(Nc3c(F)ccc(NS(=O)(=O)N4CC5CC4C5)c3Cl)c(F)c2c1=O [Example 13, N-(2-chloro-4-fluoro-3-((5-fluoro-3-methyl-4-oxo-3,4-dihydroquinazolin-6-yl)amino)phenyl)-2-azabicyclo[2.1.1]hexane-2-sulfonamide] | 6 | 6 | 78 | 1.8
2 | Cn1cnc2ccc(Nc3c(F)ccc(NS(=O)(=O)N4CC[C@@H](F)C4)c3Cl)c(F)c2c1=O [Example 14, (R)-N-(2-chloro-4-fluoro-3-((5-fluoro-3-methyl-4-oxo-3,4-dihydroquinazolin-6-yl)amino)phenyl)-3-fluoropyrrolidine-1-sulfonamide] | 5 | 3 | 21 | 5.4
